Test results taken from patent US20240165139A1, “GALACTOPYRANOSYL-CYCLOHEXYL DERIVATIVES AS E-SELECTIN ANTAGONISTS” (GLYCOMIMETICS, INC., priority 2017, published 2024).

Molecular target: E-selectin (Homo sapiens, UniProt P16581)
Test: E-Selectin Activity - competitive binding assay (sLe^a polyacrylamide conjugate vs immobilized E-selectin/Ig chimera)
Conditions: concentration required to inhibit binding of sLe^a conjugate to immobilized E-selectin/Ig chimera by 50%
Procedure: The inhibition assay to screen for and characterize glycomimetic antagonists of E-selectin is a competitive binding assay, which allows the determination of IC50 values. E-selectin/Ig chimera was immobilized in 96 well microtiter plates by incubation at 37° C. for 2 hours. To reduce nonspecific binding, bovine serum albumin was added to each well and incubated at room temperature for 2 hours. The plate was washed and serial dilutions of the test compounds were added to the wells in the presence of conjugates of biotinylated, sLe^a polyacrylamide with streptavidin/horseradish peroxidase and incubated for 2 hours at room temperature.
To determine the amount of sLe^a bound to immobilized E-selectin after washing, the peroxidase substrate, 3,3′,5,5′ tetramethylbenzidine (TMB) was added. After 3 minutes, the enzyme reaction was stopped by the addition of H3PO4, and the absorbance of light at a wavelength of 450 nm was determined.

Chain of E-selectin (P16581 22-610 limits assumed): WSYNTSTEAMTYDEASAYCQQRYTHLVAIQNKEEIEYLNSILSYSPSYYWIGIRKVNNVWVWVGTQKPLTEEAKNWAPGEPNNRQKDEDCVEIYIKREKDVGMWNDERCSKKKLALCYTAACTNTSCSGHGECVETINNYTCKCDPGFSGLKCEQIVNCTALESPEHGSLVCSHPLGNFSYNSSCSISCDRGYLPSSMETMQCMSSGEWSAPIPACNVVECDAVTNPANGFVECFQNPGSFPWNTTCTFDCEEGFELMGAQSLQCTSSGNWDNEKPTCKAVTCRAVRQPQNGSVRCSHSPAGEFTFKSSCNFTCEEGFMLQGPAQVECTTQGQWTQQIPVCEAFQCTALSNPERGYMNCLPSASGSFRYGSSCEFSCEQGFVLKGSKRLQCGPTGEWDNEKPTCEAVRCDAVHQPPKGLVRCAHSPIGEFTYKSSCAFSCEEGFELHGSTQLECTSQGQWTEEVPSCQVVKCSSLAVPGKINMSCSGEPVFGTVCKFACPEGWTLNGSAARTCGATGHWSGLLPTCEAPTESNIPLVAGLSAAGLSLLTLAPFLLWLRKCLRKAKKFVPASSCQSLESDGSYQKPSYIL

Row | SMILES | IC50 [nM]
1 | CCC1CC(C(=O)NCCNC(=O)c2cn(CCCOS(=O)(=O)O)nn2)C[C@@H](O[C@@H]2O[C@@H](CO)[C@H](O)C(O[C@@H](CC3CCCCC3)C(=O)N3CCC3)C2NC(C)=O)[C@@H]1O[C@@H]1OC(C)[C@@H](O)[C@H](O)C1O (stereo partly drawn) [Compound 19] | 580
2 | CCC1CC(C(=O)NCCNC(=O)c2cn(CCCO)nn2)C[C@@H](O[C@@H]2O[C@@H](CO)[C@H](O)C(O[C@@H](CC3CCCCC3)C(=O)N3CCC3)C2NC(C)=O)[C@@H]1O[C@@H]1OC(C)[C@@H](O)[C@H](O)C1O (stereo partly drawn) [Compound 21] | 520
3 | CCC1CC(C(=O)NCCNC(=O)[C@@H](OS(=O)(=O)O)[C@H](COS(=O)(=O)O)OS(=O)(=O)O)C[C@@H](O[C@@H]2O[C@@H](CO)[C@H](O)C(O[C@@H](CC3CCCCC3)C(=O)O)C2NC(C)=O)[C@@H]1O[C@@H]1OC(C)[C@@H](O)[C@H](O)C1O (stereo partly drawn) [Compound 25] | 660
4 | CCC1CC(C(=O)NCCNC(=O)CC(C)S(=O)(=O)O)C[C@@H](O[C@@H]2O[C@@H](CO)[C@H](O)C(O[C@@H](CC3CCCCC3)C(=O)O)C2NC(C)=O)[C@@H]1O[C@@H]1OC(C)[C@@H](O)[C@H](O)C1O (stereo partly drawn) [Compound 30] | 2780
5 | CCC1CC(C(=O)NCCNC(=O)CC(CS(=O)(=O)O)S(=O)(=O)O)C[C@@H](O[C@@H]2O[C@@H](CO)[C@H](O)C(O[C@@H](CC3CCCCC3)C(=O)O)C2NC(C)=O)[C@@H]1O[C@@H]1OC(C)[C@@H](O)[C@H](O)C1O (stereo partly drawn) [Compound 31] | 2360
6 | CCC1CC(C(=O)NCCNC(=O)CCCS(=O)(=O)O)C[C@@H](O[C@@H]2O[C@@H](CO)[C@H](O)C(O[C@@H](CC3CCCCC3)C(=O)O)C2NC(C)=O)[C@@H]1O[C@@H]1OC(C)[C@@H](O)[C@H](O)C1O (stereo partly drawn) [Compound 33] | 2120
7 | CCC1CC(C(=O)NCCNC(=O)CCC(=O)O)C[C@@H](O[C@@H]2O[C@@H](CO)[C@H](O)C(O[C@@H](CC3CCCCC3)C(=O)O)C2NC(C)=O)[C@@H]1O[C@@H]1OC(C)[C@@H](O)[C@H](O)C1O (stereo partly drawn) [Compound 35] | 720

The remaining compounds from weak to strong by IC50, led by results:

Row | IC50 [nM] | SMILES
8 | 510 | CCC1CC(C(=O)NCCNC(=O)CCCC(=O)O)C[C@@H](O[C@@H]2O[C@@H](CO)[C@H](O)C(O[C@@H](CC3CCCCC3)C(=O)O)C2NC(C)=O)[C@@H]1O[C@@H]1OC(C)[C@@H](O)[C@H](O)C1O (stereo partly drawn) [Compound 36]
9 | 240 | CCC1CC(C(=O)NCCNC(=O)c2cn(CC(CO)(CO)CO)nn2)C[C@@H](O[C@@H]2O[C@@H](CO)[C@H](O)C(O[C@@H](CC3CCCCC3)C(=O)N3CCC3)C2NC(C)=O)[C@@H]1O[C@@H]1OC(C)[C@@H](O)[C@H](O)C1O (stereo partly drawn) [Compound 20]
10 | 192 | CCC1CC(C(=O)NCCNC(=O)CCOCCOCCNC(=O)c2cn(C(COS(=O)(=O)O)(COS(=O)(=O)O)COS(=O)(=O)O)nn2)C[C@@H](O[C@@H]2O[C@@H](CO)[C@H](O)C(O[C@@H](CC3CCCCC3)C(=O)O)C2NC(C)=O)[C@@H]1O[C@@H]1OC(C)[C@@H](O)[C@H](O)C1O (stereo partly drawn) [Compound 46]
11 | 190 | CCC1CC(C(=O)NCCNC(=O)[C@@H](OS(=O)(=O)O)[C@@H](COS(=O)(=O)O)OS(=O)(=O)O)C[C@@H](O[C@@H]2O[C@@H](CO)[C@H](O)C(O[C@@H](CC3CCCCC3)C(=O)O)C2NC(C)=O)[C@@H]1O[C@@H]1OC(C)[C@@H](O)[C@H](O)C1O (stereo partly drawn) [Compound 24]
12 | 170 | CCC1CC(C(=O)NCCNC(=O)c2cn(CC(CO)(COS(=O)(=O)O)COS(=O)(=O)O)nn2)C[C@@H](O[C@@H]2O[C@@H](CO)[C@H](O)C(O[C@@H](CC3CCCCC3)C(=O)N3CCC3)C2NC(C)=O)[C@@H]1O[C@@H]1OC(C)[C@@H](O)[C@H](O)C1O (stereo partly drawn) [Compound 18]
